Laboratory results: patent publication US11813332B2, “Photosensitizer-peptide conjugate comprising degradable linker, and composition for photodynamic diagnosis or treatment comprising same” (NATIONAL CANCER CENTER, priority 2016, dated 2023)
Residues, ends and D or L forms follow the SMILES beside them. *: point of attachment. X1 = C=Cc1c(C)c2cc3nc(c(C)c4nc(cc5[nH]c(cc1[nH]2)c(C)c5CC)C(C)=C4C(=O)O)[C@@H](CCC(=O)*)[C@@H]3C

Key:
[1] = Fluorescence recovery by reducing agent (DTT) treatment; details: 5 mM DTT; for Increase of fluorescence intensity by DTT treatment: 4 hours, conjugate 2 μM in PBS, λEx 400 nm, λEm 665 nm
Procedure: The increase of fluorescence and reactive oxygen generation by reducing agent treatment was analyzed.
In the dithiothreitol (DTT) treatment sample, which is a reducing agent, 2 μM of a conjugate was mixed with 2 μM and 5 mM DTT, and the same amount of phosphate-buffered saline (PBS) was added to the buffer-treated group. The fluorescent intensity of the mixed solution (200 μl) was measured at intervals of 30 minutes for 4 hours (λEx. 400 nm, λEm. 665 nm).
Fluorescence recovery of the conjugate thus obtained by the reaction in response to a reducing agent present in a high concentration in cancer cells was performed and analyzed in the same manner as in Example 2. On the other hand, a sample prepared by dilution was put into a multifunctional microplate reader to obtain fluorescence spectrum (λEx. 400 nm, λEm. 620˜850 nm) results.
Meanwhile, in order to analyze the reactivity of the reducing agent/enzyme complex reaction type Ce4-CRRCW conjugate to the reducing agent, the conjugate was treated with reducing agents DTT 2 μM and 5 mM for 6 hours and put into a multifunctional microplate reader to obtain the fluorescence spectrum (λEx. 400 nm, λEm. 620˜850 nm) results. In order to analyze the reactivity to the enzyme, the conjugate was treated with cathepsins B, S, L, and S, or cathepsin B pretreated with cathepsin inhibitor E64 for 6 hours and put into a multifunctional microplate reader to obtain the fluorescence spectrum (λEx. 400 nm, λEm. 620˜850 nm) results. In order to analyze the reducing agent/enzyme complex reaction, 5 mM DTT and cathepsin B enzyme were treated together for 6 hours and put into a multifunctional microplate reader to obtain the fluorescence spectrum (λEx. 400 nm, λEm. 620˜850 nm) results.

PCA-SMC cells [2] = test: Cell absorption and fluorescence activity, confocal laser microscope; type: cell-based, human; details: 2 μM, 4 hours
Procedure: (§1) Thereafter, the existing medium was replaced with 200 μl of a fresh medium in which 2 μM the conjugate was dissolved, and the cells were cultured for 30 minutes, 1 hour, and 4 hours, respectively.

HCC70 cells [3] = details: 0~10 μM, dark
Procedure: In the dark state without light, the C-EGFR conjugate of the present invention was treated with 0˜10 μM concentration in HCC70 cells and cytotoxicity was evaluated.

PCA-SMC cells [4] = test: Photodynamic therapy efficacy, CCK-8 assay after 670 nm laser; type: cell-based, human; details: 10 μM, 4 h treatment, washed
Procedure: In order to evaluate the efficacy of photodynamic therapy, PCA-SMC cells were put in a 1×10^3/well and MDA-MB-231 cells and MDA-MB-468 cells were put as much as 1×10^4/well in a 96-well plate, respectively, and were cultured for 24 hours to allow the cells to be adhered well. L-EGFR conjugates were prepared at concentrations of 0.1 μM, 0.5 μM, 1 μM, 2 μM, 5 μM and 10 μM, respectively, treated with cells, and then cultured for 4 hours. Thereafter, the conjugate that had not been absorbed into cells was washed and removed, and then irradiated with a 670 nm laser at an irradiation dose density of 50 mW/cm^2 for 6 minutes and 40 seconds. Thereafter, after further culturing in an incubator until the next day, the cytotoxicity was assessed by CCK-8 assay.

[5] = Singlet oxygen generation (SOSG) under 670 nm laser after DTT treatment; details: for Increase of singlet oxygen generation: 5 mM DTT, 4 hours, 670 nm laser 50 mW/cm^2; for Generation of singlet oxygen in the quenched state: DTT not treated or 2 μM DTT
Procedure: Singlet oxygen generation (SOG) was measured by the following method. The C-EGFR conjugate thus obtained was dissolved in PBS to be 2 μM, and then DTT-treated samples were mixed with 2 μM and 5 mM DTT, respectively, and the same amount of PBS was mixed in the buffer-treated group. The mixed solution (200 μl) was cultured at 37° C. for 4 hours. Subsequently, oxygen-saturated PBS including concentrated singlet oxygen sensor green (SOSG) was mixed and the final SOSG concentration was adjusted to 5 μM. Fluorescence intensity change of the SOSG was periodically measured using a 670 nm continuous wavelength laser device during the light irradiation (light irradiation dose: 50 mW/cm^2) of the sample.
In addition, in order to confirm the generation of singlet oxygen (SOG), the same method as in Example 2 was performed and analyzed.

HCC70 cells [6] = test: Cell absorption and fluorescence activity, confocal laser microscope; type: cell-based, human; details: 2 μM, 4 hours
Description: In the 8-well Lab-Tek chamber, 5×10^3 PCA-SMC cells and 5×10^4 HCC70 cells were put in each well.

HCC70 cells [7] = test: Real-time observation of fluorescence quenching and recovery without washing (live cell imaging); type: cell-based, human; details: no washing, images over 4 hours
Procedure: An experiment was conducted to verify whether a C-EGFR conjugate of the present invention in which fluorescence signal generation has been quenched from outside the target cell strongly generates fluorescence after the absorption of the C-EGFR conjugate into target cells. EGFR-overexpressing HCC70 cells were treated with the C-EGFR conjugate and free photosensitizer (Ce4), and then fluorescence images were obtained at regular time intervals without washing. The detailed method is provided as follows.
The existing medium was then replaced with 0.5 ml of fresh medium including the conjugate and the free photosensitizer. Thereafter, each of the near infrared light fluorescence images (λEx. 640±15 nm, λEm. 690±25 nm) were obtained at intervals of 15 minutes for 4 hours using the Live Cell Imaging System (Axio Observer Z1, Carl Zeiss, Germany) without washing the cells.

trypsin enzyme = details: after 4 hours, 37° C., PBS, λEm 665 nm
Procedure: 1 nmol of each of Ce4-RRWW and Ce4-RRWWW thus obtained was prepared and dissolved in a PBS solution. The trypsin enzyme was mixed with each […] of each conjugate and fluorescence changes were observed over time at 37° C.

[8] = 2 μM, PBS including 10% FBS, room temperature, 4 hours
Procedure: The L-EGFR conjugate of the present invention was mixed with PBS including 10% […], fetal bovine serum (FBS, Gibco, USA), respectively, and cultured, and the stability in the serum was evaluated. The final concentration of the conjugate in solution was adjusted to 2 μM. The solution was allowed to react at room temperature for 4 hours and then put in a multifunctional microplate reader (Safire 2, Tecan, Switzerland) to obtain a fluorescence spectrum (λEx. 400 nm) result.
The Ce4-RRW conjugate of the present invention was mixed with PBS including 10% of FBS and cultured to evaluate the stability in serum. The final concentration of the conjugate in solution was adjusted to 2 μM. The solution was allowed to react at room temperature for 4 hours and then put in a multifunctional microplate reader to obtain a fluorescence spectrum (λEx. 610 nm, λEm. 620˜850 nm) result.

KB cells = details: 2 μM
Procedure: KB cells per well were put in a 4-well Lab-Tek chamber per 2×10^5, and were cultured for 24 hours to allow the cells to be absorbed well. Thereafter, the existing medium was replaced with 500 μl of fresh medium in which the Ce4-RRW conjugate (2 μM) was dissolved, and then the cells were cultured for 4 hours.
Finally, the cells were washed three times with the culture medium, and then a near-infrared fluorescence image (λEx. 405 nm, λEm. 625˜754 nm) was obtained using a confocal laser microscope.
Experiments were performed to determine the intracellular location of the Ce4-RRW of the present invention. In the 8-well Lab-Tek chamber, 5×10^4 KB cells were put in each well. The cells were cultured for 24 hours to allow the cells to be absorbed well, and then 2 μM Ce4-RRW was added and cultured for 4 hours, followed by washing three times. Thereafter, after replacing the existing medium with fresh medium including 100 nM LysoTracker Blue DND-22 dye, the cells were cultured for 45 minutes. Fluorescent images of the Ce4-RRW (λEx. 405 nm, λEm. 625˜754 nm) and LysoTracker (λEx. 405 nm, λEm. 411˜497 nm) were obtained for these samples using confocal microscopy.

MDA-MB-231 cells = test: Cell absorption and fluorescence activity, confocal laser microscope; type: cell-based, human; details: 2 μM
Procedure: as §1

MDA-MB-468 cells [9] = test: as above; type: cell-based, human; details: 2 μM
Procedure: as §1
L-EGFR conjugate was treated at a concentration of 2 μM and was cultured for 4 hours, followed by washing three times.

MDA-MB-468 cells [10] = details: 0~10 μM, dark
Procedure: In the dark state without light, the L-EGFR conjugate of the present invention was added to MDA-MB-468 cells at a concentration of 0˜10 μM and cytotoxicity was evaluated.

Row | Compound | Increase of fluorescence intensity by DTT treatment [1] [times] | Intracellular fluorescence signal / cell entry (PCA-SMC cells [2]) | Cells alive after photodynamic therapy (PCA-SMC cells [4]) | Increase of singlet oxygen generation [5] [times] | Generation of singlet oxygen in the quenched state [5] | Fluorescence image without washing (HCC70 cells [7]) | Increase of fluorescence versus initial fluorescence after trypsin treatment (trypsin enzyme) | Effect of serum protein on fluorescence of the conjugate [8] | further results
1 | C=Cc1c(C)c2cc3nc(c(C)c4[nH]c(cc5nc(cc1[nH]2)C(C)=C5CC)c(C)c4C(=O)O)[C@@H](CCC(=O)NCCOCCOCC(=O)N[C@H]1CSSC[C@@H](C(=O)N[C@@H](Cc2ccc(O)cc2)C(=O)N[C@@H](Cc2c[nH]cn2)C(=O)N[C@@H](Cc2c[nH]c4ccccc24)C(=O)N[C@@H](Cc2ccc(O)cc2)C(=O)NCC(=O)N[C@@H](Cc2ccc(O)cc2)C(=O)N[C@H](C(=O)N2CCC[C@H]2C(=O)N[C@@H](CCC(N)=O)C(=O)N[C@@H](CC(N)=O)C(=O)N[C@H](C(=O)N[C@H](C(=O)O)[C@@H](C)CC)C(C)C)[C@@H](C)O)NC1=O)[C@@H]3C [C-EGFR] | 3.4 | fluorescence signals were hardly exhibited | at least 70% | 5 | inhibited | fluorescence signal generation is inhibited from outside the cell | – | – | Time to fluorescence recovery after the start of the reaction [1]: ≤ 30 min; Cytotoxicity without light irradiation (HCC70 cells [3]): did not show cytotoxicity; Intracellular fluorescence signal (HCC70 cells [6]): strong fluorescence signals; Intracellular location (LysoTracker co-staining) (HCC70 cells [6]): migrated into the lysosomes
2 | C=Cc1c(C)c2cc3nc(c(C)c4nc(cc5[nH]c(cc1[nH]2)c(C)c5CC)C(C)=C4C(=O)O)[C@@H](CCC(=O)N[C@@H](CCCNC(=N)N)C(=O)N[C@@H](CCCNC(=N)N)C(=O)N[C@@H](Cc1c[nH]c2ccccc12)C(=O)N[C@@H](Cc1c[nH]c2ccccc12)C(=O)N[C@@H](Cc1c[nH]c2ccccc12)C(=O)O)[C@@H]3C [Ce4-RRWWW] (X1-RRWWW-OH) | – | – | – | – | – | – | 4.3 times | – | –
3 | C=Cc1c(C)c2cc3nc(c(C)c4nc(cc5[nH]c(cc1[nH]2)c(C)c5CC)C(C)=C4C(=O)O)[C@@H](CCC(=O)N[C@@H](CCCNC(=N)N)C(=O)N[C@@H](CCCNC(=N)N)C(=O)N[C@@H](Cc1c[nH]c2ccccc12)C(=O)N[C@@H](Cc1c[nH]c2ccccc12)C(=O)O)[C@@H]3C [Ce4-RRWW] | – | – | – | – | – | – | about 1.6 times | – | –
4 | C=Cc1c(C)c2cc3nc(c(C)c4nc(cc5[nH]c(cc1[nH]2)c(C)c5CC)C(C)=C4C(=O)O)[C@@H](CCC(=O)N[C@@H](CCCNC(=N)N)C(=O)N[C@@H](CCCNC(=N)N)C(=O)N[C@@H](Cc1c[nH]c2ccccc12)C(=O)O)[C@@H]3C [Ce4-RRW] | – | – | – | – | – | – | – | did not affect the fluorescence | Intracellular fluorescence signal (KB cells): strong fluorescence signal; Intracellular location (LysoTracker co-staining) (KB cells; 4 hours): located in the lysosome
5 | C=Cc1c(C)c2cc3nc(c(C)c4[nH]c(cc5nc(cc1[nH]2)C(C)=C5CC)c(C)c4C(=O)O)[C@@H](CCC(=O)NCCOCCOCC(=O)N[C@@H](CSSC[C@H](N)C(=O)N[C@@H](Cc1ccc(O)cc1)C(=O)N[C@@H](Cc1c[nH]cn1)C(=O)N[C@@H](Cc1c[nH]c2ccccc12)C(=O)N[C@@H](Cc1ccc(O)cc1)C(=O)NCC(=O)N[C@@H](Cc1ccc(O)cc1)C(=O)N[C@H](C(=O)N1CCC[C@H]1C(=O)N[C@@H](CCC(N)=O)C(=O)N[C@@H](CC(N)=O)C(=O)N[C@H](C(=O)N[C@H](C(=O)O)[C@@H](C)CC)C(C)C)[C@@H](C)O)C(=O)O)[C@@H]3C [L-EGFR] | 2.5 | did not enter the cell even after culturing for 4 hours | at least 70% | 2 | suppressed | – | – | did not affect the fluorescence intensity | Fluorescence recovered within 5 minutes after the start of the reaction [1]: at least 90%; Intracellular fluorescence signal with culture time (MDA-MB-231 cells; 30 minutes to 4 hours): fluorescence intensity was increased with increasing culture time; Intracellular fluorescence signal (MDA-MB-231 cells; first 30 minutes): fluorescence was almost not observed; Fluorescence signal (MDA-MB-468 cells [9]; 30 minutes): strong fluorescence signal on the cell surface; Intracellular location (LysoTracker co-staining) (MDA-MB-468 cells [9]; 4 hours): activated in the lysosome; Cytotoxicity without light irradiation (MDA-MB-468 cells [10]): did not show cytotoxicity
6 | chlorin e4 [free photosensitizer, reference compound] | – | – | – | – | – | position of cancer cells cannot be distinguished | – | – | –
